# Reference: patent publication US20240199577A1, “ACORAMIDIS ANALOGS FOR STABILIZING TRANSTHYRETIN AND INHIBITING TRANSTHYRETIN MISFOLDING” (Protego Biopharma, Inc., priority 2021, published 2024)
# What was measured:
# [1] = Pharmacokinetic study in rat (plasma, CSF, brain); format: in vivo; conditions: male, Sprague-Dawley, oral dose of 40 mg/kg
# Source text: For a compound provided herein to be an effective TTR stabilizer drug to halt and/or prevent the ocular and cerebral TTR amyloid deposition TTR amyloidosis, it has to be able to penetrate into the brain and CSF (surrogate for eye penetration) and deliver a sufficient amount of TTR stabilizer to stop TTR dissociation. A pharmacokinetic study in rat is used to evaluate the compounds. Male Sprague-Dawley (SD) rats (200-220 g weight) are acclimated for at least 2 to 3 days before being placed on study. All animals will have access to certified rodent diet and water at libitum. […] For IV dosing, the test compound is administered via tail vein or indwelling cannula. For oral dosing, the test compound is administered by oral gavage. Blood and CSF samples are collected at selected timepoints. Blood collection is performed from saphenous vein or tail vein of each animal into polypropylene tubes at each timepoint. […] The weight of brain samples is recorded. […] Using a LC-MSMS method for the quantitative determination of test compound in biological matrixes, amount of test compound and active agent are measured in plasma and CSF at selected timepoints post-dosing and in brain at 24 hrs post dosing. Plasma concentration versus time data is analyzed by non-compartmental approaches using the Phoenix WinNonlin 6.3 software program. […]
# [2] = In vitro rat liver S9 stability assay (formation of AG10); format: in vitro ADME; conditions: rat liver S9, 1 μM test compound, 37° C.
# Protocol: The test compound was added to liver S9 and incubated at 37° C. in a water bath at a concentration of 1 μM. At each time point (0, 5, 10, 20, 30 and 60 min), stop solution (tolbutamide plus labetalol) was added to precipitate protein and mixed thoroughly. After centrifugation, an aliquot of supernatant was analyzed by LC-MS/MS. The percentage of formation of active agent was calculated at each time point.
# [3] = tafamidis-treated FAP patients, cited from earlier work
smiles,measurement,setting,value
"Cc1n[nH]c(C)c1CCCOc1cc(C(=O)O)ccc1F [AG10, acoramidis]",Kp,"[1]; CSF and plasma, over 24 hrs, read-out: CSF to plasma ratio over 24 hrs",~0.009
same,Kp at 24 h,"[1]; brain and plasma, at 24 hrs, read-out: brain to plasma ratio at 24 hrs",~0.008
"Cc1n[nH]c(C)c1CCCOc1cc(C(=O)OC2CCN(C)C2)ccc1F (centres unmarked) [Compound 2, 1-methylpyrrolidin-3-yl 3-(3-(3,5-dimethyl-1H-pyrazol-4-yl)propoxy)-4-fluorobenzoate]",Formation of AG10 at 60 min,[2],A (A is <25%)
O=C(O)c1ccc2nc(-c3cc(Cl)cc(Cl)c3)oc2c1 [tafamidis],tafamidis level in CSF relative to that in plasma,[3]; CSF,2%
same,tafamidis/TTR stoechimetric ratio in CSF,[3]; CSF,≤ 1
same,tafamidis/TTR stoechimetric ratio in plasma,[3]; plasma,2.4
same,tafamidis level in vitreous relative to that in plasma,[3]; vitreous,0.5%
same,tafamidis/TTR stoechimetric ratio in vitreous,[3]; vitreous,≤ 1
